# “And” between values parts separate entries of the source, which are not always exact repeats. Equal values may be shown once.
# How the values were obtained:
# [1] = system: chronic alcoholics at a stage of detoxication; experiment: Neurological symptoms (impairment scores in neurological tests) in chronic alcoholics at a stage of detoxication; format: in vivo, patients (human); details: for Reflexes impairment score: basal 1.6, control 1.2; for Ataxia-tremors cramps impairment score: basal 1.7; for Sensitivity impairment score: basal 3.0
# Procedure: (§1) This study left out patients more than 70 years old or patients suffering from severe renal or cardiovascular impairment, diabetes or other pathologies (epilepsy, delirium […] could prevent evaluation of the investigated treatment. During study, which was conducted single blind, two therapeutic procedures were compared for a period of 8 days allotted as follows: one day (I) for selection and basic determinations at the time of alcohol withdrawal; six days (II-VII) for treatment; one day (VIII) for follow-up. […] Some of the patients received, days II to IV, a total parenteral nutrition (NTP) followed by hypercaloric diet during the remaining three days. During the study, no further drugs were administered except those which would be required by concomitant pathologies and which could not interfere with the nutritional state. In the patients imperatively requiring a control of psychomotor derangement during the abstinence period, chlordimethyldiazepam (2 mg/iv) was used and the daily doses thereof were recorded. On the first day the history, particularly in respect of alcoholism, was obtained. On days I, V and VIII a thorough examination of the patient's neurological and psychiatric conditions was performed. The psychic areas were evaluated by using simplified rating scales for the psychomotor derangement and the behaviour and consciousness disorders present in the alcohol withdrawal period. For the neurological evaluation, there were taken into consideration the reflexes, the exteroceptive and propioceptive sensitivities and the presence of ataxia, tremors and cramps, and semiquantitative ratings of 0 (no symptom or normal picture) to 3 (high severity symptom or no response) were assigned.
# [2] = system: patients in a state of acute drunkenness; experiment: Vital signals (heart rate, arterial pressure) in patients with acute drunkenness; format: in vivo, patients (human)
# Procedure: (§2) 28 patients were selected, 26 males and 2 females, aged 17 to 68, which had been taken to a first aid post for traumas suffered during a state of acute drunkenness (18 cases) or to phenomena resulting from that state of drunkenness (10 cases). Of the patients under observation, 18 were chronic alcoholics and 10 were subjects with no alcoholism story (Table 4).
# (§3) The patients then received, at random, one rapid infusion of 15 g FDP as a 10% sodium salt solution of FDP, or a 5% (150 ml) glucose solution. 15 minutes after the completion of infusion, evaluations were repeated.
# (§4) Following the first anamnestic and diagnostic checks, measurements were taken of the arterial pressure and the heart rate. Then, evaluation was made, in basal conditions, of the psychic and behavioral state (psychomotor excitement, vigilance, time-space orientation and lucidity) and the neurological state (equilibrium, forefinger-nose test, palpebral, corneal and pain reflexes). For the semiquantitative evaluation of the selected parameters, severity scales with arbitrary ratings were adopted. Evaluation of lucidity was made by using the figure repeating test.
# (§5) The data obtained for each patient were compared with those obtained before the treatment by means of the mixed pattern variance analysis followed, in case of gross significance, by the Tukey's multiple comparison test. A 5% level was used as the minimum level of statistical significance.
# [3] = Tolerability in patients with acute drunkenness; details: human, in vivo
# Procedure: as §2, §3
# [4] = Acetaldehyde hematic concentrations in volunteers given ethanol orally after FDP infusion (cross-over); format: in vivo, male volunteers (human); details: Student's t test for coupled data
# Excerpt: (§6) Male volunteers (ages 19 to 46, 73 kg average weight) in good conditions of health as ascertained by objective test and hematologic and biochemical analyses, participated in the investigation. None of the subjects had used drugs during the week before the study nor in the course of the study.
# Each subject was given, in two sittings, with one wash-out week interval between sittings, ethanol (control) and ethanol with added fructose-1,6-diphosphate (FDP) according to an experimental cross-over design. After one night of fasting, each patient received ethanol orally, in the morning, at a rate of 0.5 g/kg body weight, as a 30% analytical grade ethyl alcohol solution in effervescent mineral water. […]
# From the individual data obtained in each sitting and for each subject, the values of the following parameters were calculated: maximum concentration (Cmax), time for attaining maximum concentration (Tmax), mean life of absorption (Ab t1/2), mean life of elimination (El t1/2) and area under curve zero to infinity (AUC). The ethanol and acetaldehyde concentrations were measured in the two sittings of study and the values of the pharmacokinetic parameters given above were compared by the Student's t-test for paired data, with the exception of the maximum concentration times of ethanol which were compared by the Wilcoxon test. […]
# [5] = system: patients in a state of acute drunkenness; experiment: Impairment scores in neurologic tests in patients with acute drunkenness; format: in vivo, patients (human)
# Procedure: as §2, §3, §4, §5
# [6] = system: patients in a state of acute drunkenness; experiment: Psychic and behavioural conditions scores in patients with acute drunkenness; format: in vivo, patients (human)
# Procedure: as §2, §3, §4, §5
# [7] = Ethanol hematic concentrations and pharmacokinetics in volunteers given ethanol orally after FDP infusion (cross-over); format: in vivo, male volunteers (human)
# Excerpt: as §6
# Each subject was given, in two sittings, with one wash-out week interval between sittings, ethanol (control) and ethanol with added fructose-1,6-diphosphate (FDP) according to an experimental cross-over design. After one night of fasting, each patient received ethanol orally, in the morning, at a rate of 0.5 g/kg body weight, as a 30% analytical grade ethyl alcohol solution in effervescent mineral water. FDP was administered at the rate of 250 mg/kg of fructose-1,6-diphosphate sodium hydrate salt in an intravenous infusion during 20 minutes (2.5 ml/kg).
# From the individual data obtained in each sitting and for each subject, the values of the following parameters were calculated: maximum concentration (Cmax), time for attaining maximum concentration (Tmax), mean life of absorption (Ab t1/2), mean life of elimination (El t1/2) and area under curve zero to infinity (AUC). The ethanol and acetaldehyde concentrations were measured in the two sittings of study and the values of the pharmacokinetic parameters given above were compared by the Student's t-test for paired data, with the exception of the maximum concentration times of ethanol which were compared by the Wilcoxon test. The level of statistical significances was set at 5%.
# [8] = system: chronic alcoholics at a stage of detoxication; experiment: Psychiatric symptoms (psychic and behavioural state scores) in chronic alcoholics at a stage of detoxication; format: in vivo, patients (human); details: for Motor derangement score: FDP group (20 g/day i.v. days II-VII plus nutrition), basal 1.4; for Motor derangement score / Behavioural disorders score / Conscience disorders score: p < 0.01 vs basal; for Behavioural disorders score / Conscience disorders score: FDP group; for Behavioural disorders score: basal 1.3; for Conscience disorders score: basal 1.5
# Procedure: as §1
# [9] = no test described; cited from earlier work
smiles,measurement,setting,value
"O=C(COP(=O)(O)O)[C@@H](O)[C@H](O)[C@H](O)COP(=O)(O)O [FDP, fructose-1,6-diphosphate]",Reflexes impairment score,"[1]; FDP group (20 g/day i.v. days II-VII plus nutrition), day V",1.2
same,Ataxia-tremors cramps impairment score,"[1]; FDP group, day V, p < 0.01 vs basal, control 0.9",1.0
same,Sensitivity impairment score,"[1]; FDP group, day V, p < 0.01 vs basal, control 2.4",2.1
same,Reflexes impairment score,"[1]; FDP group, day VIII, p < 0.01 vs basal",1.0
same,Ataxia-tremors cramps impairment score,"[1]; FDP group, day VIII, p < 0.01 vs basal, control 0.8",0.5
same,Sensitivity impairment score,"[1]; FDP group, day VIII, p < 0.01 vs basal, control 1.7",1.8
same,"Reflexes, recovery","[1]; day VIII, only in FDP treated group",the reflexes recovered to normal
same,"Remaining neurological symptomatology, FDP vs control",[1]; evolutive tendency in the course of the study,does not evidence any difference betwen the two treatments
same,"Arterial diastolic pressure, final","[2]; 15 min after infusion of 15 g FDP, basal 67.9 (text 68), p < 0.05 vs basal, glucose 69.6 to 69.6",75.3 mm Hg and 75 mm Hg
same,"Cardiac frequency, final","[2]; 15 min after infusion of 15 g FDP, basal 103.1, p < 0.01 vs basal, glucose 101.7 to 96.9",94.4 beats/minute
same,"Arterial sistolic pressure, final","[2]; 15 min after infusion of 15 g FDP, basal 113.2, glucose 113.1 to 110.8",116.5 mm Hg
same,Blood pressure and heart rate in subjects with basal hypertension accompanied by tachycardia,[2]; after FDP,permits the normal values of both blood pressure and heart rate to be restored
same,"Heart rate, final","[2]; after FDP, from 103 basal, significant",94 pulsations/minute
same,Tolerability,[3],good tolerability
same,"Significance of acetaldehyde concentration differences, FDP vs control",[4],no statistically significant differences at any of the considered times and ns
same,"Corneal reflex impairment score, final","[5]; 15 min after infusion of 15 g FDP, basal 0.1, glucose 0.1 to 0.1",0.0
same,"Palpebral reflex impairment score, final","[5]; 15 min after infusion of 15 g FDP, basal 0.4, p < 0.05 vs basal, glucose 0.5 to 0.1",0.0
same,"Pain reflex impairment score, final","[5]; 15 min after infusion of 15 g FDP, basal 0.9, p < 0.05 vs basal, glucose 0.5 to 0.2",0.3
same,"""Forefinger-nose"" test impairment score, final","[5]; 15 min after infusion of 15 g FDP, basal 1.3, p < 0.01 vs basal, glucose 0.9 to 0.7",0.4
same,"Equilibrium impairment score, final","[5]; 15 min after infusion of 15 g FDP, basal 1.6, p < 0.01 vs basal, glucose 1.1 to 0.9",1.1
same,"Postural equilibrium, forefinger-nose test, palpebral and pain reflexes",[5]; after FDP,significantly improved
same,Corneal reflex in patients with basal impairment,"[5]; at the end of FDP treatment, all the patients",normal state in this respect at the end of FDP treatment
same,"Motor derangement score, final","[6]; 15 min after infusion of 15 g FDP, basal 1.1, p < 0.01 vs basal, glucose 1.0 to 0.7",0.3
same,"Vigilance impairment score, final","[6]; 15 min after infusion of 15 g FDP, basal 1.1, p < 0.01 vs basal, glucose 1.2 to 1.0 (p < 0.05 vs final FDP)",0.5
same,"Lucidity level score, final","[6]; 15 min after infusion of 15 g FDP, basal 1.6, p < 0.01 vs basal, glucose 1.5 to 2.5",3.6
same,"Orientation impairment score, final","[6]; 15 min after infusion of 15 g FDP, basal 4.5, p < 0.01 vs basal, glucose 4.3 to 3.4 (p < 0.05 vs final FDP)",1.7
same,"Comparison of treatments, final values for vigilance and orientation",[6]; FDP vs glucose solution,significant difference between FDP and glucose solution
same,State of psychomotor disorder,[6]; after FDP,tends towards complete disappearance
same,"Vigilance, orientation and mental lucidity",[6]; after FDP,"notably improved, with the tendency being towards return to normal levels"
same,"Psychic and behavioural state, all parameters",[6]; after FDP vs basal,all of the parameters show to be positively and significantly influenced
same,"Ethanol AUC in the 0-90 min range, lower following FDP","[7]; 0-90 min, vs control (FIG. 1)",40%
same,Percent difference of ethanol concentration after FDP with respect to control (lower),[7]; 15 min,70%
same,Percent difference of ethanol concentration after FDP with respect to control (lower),[7]; 30 min,64%
same,Percent difference of ethanol concentration after FDP with respect to control (lower),[7]; 60 min,31%
same,"Ethanol AUC (zero to infinity), average","[7]; FDP session, Table 2, n = 8, SD 976, control 2229",2695 mmol·min/L
same,"Ethanol AUC (zero to infinity), average","[7]; FDP sitting, control 2695",2229 mmol·min/L
same,Significance of the difference in ethanol AUC vs control,"[7]; Student's t test, paired",no significant differences
same,Significance of the difference in ethanol maximum concentration vs control,"[7]; Student's t test, paired",the observed difference did not attain statistical significance
same,Difference in the alcohol absorption rate,"[7]; from absorption half-life vs control, p<0.05",66%
same,"Time for attaining maximum ethanol concentration, longer than control",[7]; p<0.05 vs control sitting,120%
same,Motor derangement score,"[8]; day V, control 0.8",0.6
same,Motor derangement score,"[8]; day VIII, control 0.5",0.4
same,Behavioural disorders score,"[8]; day V, control 0.7",0.4
same,Conscience disorders score,"[8]; day V, control 0.6",0.3
same,Behavioural disorders score,"[8]; day VIII, control 0.5",0.3
same,Conscience disorders score,"[8]; day VIII, control 0.5",0.2
same,Consumption of chlordimethyldiazepam,[8]; FDP vs no FDP,higher consumption of chlordimethyldiazepam required by patients not having get FDP
same,"Psychiatric symptoms, improvement","[8]; day V, FDP treated patients only, p<0.01",improvement of all of the considered symptoms
same,Consciousness disorders,"[8]; eighth day, FDP treated patients, not in control group",the consciousness disorders did disappear in FDP treated patients
same,Psychiatric symptomatology connected with the alcohol withdrawal,[8]; patients treated with FDP,disappeared after only five days of treatment
same,Elimination half-life of the FDP,[9],less than 15 minutes

# Source: patent US4870057A, “Use of fructose-1,6-diphosphate in the treatment of acute alcoholic intoxication and chronic ethylism, and related pharmaceutical compositions” (priority 1988, dated 1989)
